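Tested at 5 concentrations; 48 h exposure; 96-well plates; endpoints linearly interpolated, else capped at highest concentration. TGI marks complete inhibition of growth.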
Each compound was assayed on RPMI-8226 leukemia (assay: DTP human tumour cell line panel, 48 h).
In the case of `Cc1cc(=O)oc2c(CNC(CC(C)C)C(=O)O)c(O)ccc12` (stereo not drawn), the TGI was over 100 µM. `COC1CC(OC2C(C)OC(OC3C(C)OC(OC4C(C)OC(O[C@H]5CC[C@@]6(C)C(=CC[C@]7(O)[C@@H]6C[C@@H](O)[C@@]6(C)[C@]7(O)CC[C@@]6(O)C(C)=O)C5)CC4OC)CC3OC)CC2OC)OC(C)C1O` (stereo partly drawn) gave a TGI of over 12.5 µM. Work on `Cc1ccc2c(c1C)C(=O)/C(=C/c1cccc(C)c1C(=O)O)C2` yielded a TGI of over 100 µM. `O=C1N(c2ccccc2)C(=S)/C(=C/c2ccc(Cl)cc2)N1c1ccc(Cl)cc1` gave a TGI of 52.5 µM. `O=C1C=C(N2CCN(CCOCCO)CC2)C(=O)c2c(O)ccc(O)c21` showed a TGI of over 100 µM. With `CC/C(N)=N\NC(=O)OC(C)(C)C` the TGI was over 100 µM. For `CC(=O)NC1C(OCc2ccccc2)OC(CO)C(O)C1OCC(=O)N[C@@H](C)C(=O)N[C@H](CCC(=O)NCCCNc1ccc([N+](=O)[O-])c2[nH]c3ccccc3c(=O)c12)C(N)=O` (stereo partly drawn), the TGI was over 100 µM. For `CCOC(=O)c1cc(Br)c(-c2cc(C)co2)[nH]1`, the TGI was over 100 µM. In the case of `O=P(O)(O)CN1CCNCCN(CP(=O)(O)O)CC1`, the TGI was over 100 µM. `c1cc2c(cc1C1=NCCN1)c1cc(C3=NCCN3)ccc1n2CC1CCCCC1` showed a TGI of over 100 µM.

These compounds were tested on OVCAR-8 ovarian (assay: DTP human tumour cell line panel, 48 h).
`COc1cc2c3c(cc(Cl)nc3c1OC)C(O)(CC(=O)c1ccccc1)C(=O)N2` (stereo not drawn) gave a TGI of 32.1 µM. With `Cc1ccc(S[C@@H](C)[C@@](O)(C(N)=O)c2ccccc2)cc1` the TGI was over 100 µM. `CN1CCN([C@H]2C[C@H]3[C@@H]4CC=C5C[C@@H](O)CC[C@]5(C)[C@H]4CC[C@]3(C)[C@H]2O)CC1` was tested, and the TGI was over 57.1 µM. `CC(C)c1ccc(/C=C2\CSCC3=C2N=C2SCC(=O)N2C3c2ccc(C(C)C)cc2)cc1` (stereo not drawn) showed a TGI of over 100 µM. `CCOC(=O)CCC(NC(=O)c1ccc(Nc2nc3ccccc3nc2C(=O)OCC)cc1)C(=O)OCC` (stereo not drawn) gave a TGI of 7.97 µM. For `CC(=O)c1sc2[n+](c1C)C(=O)/C(=C\c1ccccc1Cl)S2`, the TGI was 77.5 µM. `CC(NC(=O)C(Cc1ccc(OC(=O)c2ccccc2)cc1)NC(=O)OC(C)(C)C)C(=O)NCC(=O)NC(Cc1ccccc1)C(=O)NN` (stereo not drawn) was tested, and the TGI was over 100 µM. Compound `C[C@H](CCC(=O)NCC(=O)O)[C@H]1CC[C@H]2[C@@H]3[C@H](O)C[C@@H]4C[C@H](O)CC[C@]4(C)[C@H]3CC[C@]12C` has a TGI of over 100 µM. For `CN(C)/C=C/C=C(/C=N/S(=O)(=O)C(F)(F)F)C1C=CN(S(=O)(=O)C(F)(F)F)C=C1`, the TGI was over 100 µM. With `Cc1cc(=O)oc2c(CNC(CC(C)C)C(=O)O)c(O)ccc12` (stereo not drawn) the TGI was over 100 µM. For `COC1CC(OC2C(C)OC(OC3C(C)OC(OC4C(C)OC(O[C@H]5CC[C@@]6(C)C(=CC[C@]7(O)[C@@H]6C[C@@H](O)[C@@]6(C)[C@]7(O)CC[C@@]6(O)C(C)=O)C5)CC4OC)CC3OC)CC2OC)OC(C)C1O` (stereo partly drawn), the TGI was over 12.5 µM. `Cc1ccc2c(c1C)C(=O)/C(=C/c1cccc(C)c1C(=O)O)C2` was tested, and the TGI was over 100 µM. `O=C1N(c2ccccc2)C(=S)/C(=C/c2ccc(Cl)cc2)N1c1ccc(Cl)cc1` showed a TGI of over 100 µM. Compound `O=C1C=C(N2CCN(CCOCCO)CC2)C(=O)c2c(O)ccc(O)c21` has a TGI of 17.9 µM. For `CC/C(N)=N\NC(=O)OC(C)(C)C`, the TGI was over 100 µM. `CC(=O)NC1C(OCc2ccccc2)OC(CO)C(O)C1OCC(=O)N[C@@H](C)C(=O)N[C@H](CCC(=O)NCCCNc1ccc([N+](=O)[O-])c2[nH]c3ccccc3c(=O)c12)C(N)=O` (stereo partly drawn) showed a TGI of over 100 µM. For `CCOC(=O)c1cc(Br)c(-c2cc(C)co2)[nH]1`, the TGI was over 100 µM. For `O=P(O)(O)CN1CCNCCN(CP(=O)(O)O)CC1`, the TGI was over 51 µM. In the case of `c1cc2c(cc1C1=NCCN1)c1cc(C3=NCCN3)ccc1n2CC1CCCCC1`, the TGI was over 100 µM.

These compounds were tested on COLO 205 colon (assay: DTP human tumour cell line panel, 48 h).
Work on `COc1cc2c3c(cc(Cl)nc3c1OC)C(O)(CC(=O)c1ccccc1)C(=O)N2` (stereo not drawn) yielded a TGI of 52.4 µM. In the case of `Cc1ccc(S[C@@H](C)[C@@](O)(C(N)=O)c2ccccc2)cc1`, the TGI was over 100 µM. With `CN1CCN([C@H]2C[C@H]3[C@@H]4CC=C5C[C@@H](O)CC[C@]5(C)[C@H]4CC[C@]3(C)[C@H]2O)CC1` the TGI was over 100 µM. For `CC(C)c1ccc(/C=C2\CSCC3=C2N=C2SCC(=O)N2C3c2ccc(C(C)C)cc2)cc1` (stereo not drawn), the TGI was over 100 µM. `CCOC(=O)CCC(NC(=O)c1ccc(Nc2nc3ccccc3nc2C(=O)OCC)cc1)C(=O)OCC` (stereo not drawn) was tested, and the TGI was over 100 µM. For `CC(=O)c1sc2[n+](c1C)C(=O)/C(=C\c1ccccc1Cl)S2`, the TGI was 28 µM. With `CC(NC(=O)C(Cc1ccc(OC(=O)c2ccccc2)cc1)NC(=O)OC(C)(C)C)C(=O)NCC(=O)NC(Cc1ccccc1)C(=O)NN` (stereo not drawn) the TGI was 53.2 µM. Work on `C[C@H](CCC(=O)NCC(=O)O)[C@H]1CC[C@H]2[C@@H]3[C@H](O)C[C@@H]4C[C@H](O)CC[C@]4(C)[C@H]3CC[C@]12C` yielded a TGI of over 100 µM. For `CN(C)/C=C/C=C(/C=N/S(=O)(=O)C(F)(F)F)C1C=CN(S(=O)(=O)C(F)(F)F)C=C1`, the TGI was 32.6 µM. Compound `Cc1cc(=O)oc2c(CNC(CC(C)C)C(=O)O)c(O)ccc12` (stereo not drawn) has a TGI of over 100 µM. Work on `COC1CC(OC2C(C)OC(OC3C(C)OC(OC4C(C)OC(O[C@H]5CC[C@@]6(C)C(=CC[C@]7(O)[C@@H]6C[C@@H](O)[C@@]6(C)[C@]7(O)CC[C@@]6(O)C(C)=O)C5)CC4OC)CC3OC)CC2OC)OC(C)C1O` (stereo partly drawn) yielded a TGI of over 12.5 µM. With `Cc1ccc2c(c1C)C(=O)/C(=C/c1cccc(C)c1C(=O)O)C2` the TGI was over 100 µM. In the case of `O=C1N(c2ccccc2)C(=S)/C(=C/c2ccc(Cl)cc2)N1c1ccc(Cl)cc1`, the TGI was over 100 µM. In the case of `O=C1C=C(N2CCN(CCOCCO)CC2)C(=O)c2c(O)ccc(O)c21`, the TGI was 2.86 µM.

Source: PubChem BioAssay (NCI)
